The text below walks through data of patent US20230114728A1 (Venatorx Pharmaceuticals, Inc., priority 2019, published 2023).

In brackets after ≈: the same amount, converted by molar mass.

The target in assay [1] is T1, E. coli K12 PBP3 (Escherichia coli, UniProt P0AD68).
T1 construct: made in house
The experiment in a line: biochemical. It is filed as binding. An outline of the steps:
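Fluorescence polarization (ex 490/em 520 nm) competition of inhibitors against Bocillin-FL at 0.1 μM, read up to 60 min. Final PBP levels: E. coli PBP3 1.5 μM; A. baumannii PBP2 2.5 μM, PBP3 0.2 μM in Tris pH 8.0/NaCl/glycerol/Tween 20; N. gonorrhoeae PBP2 […] in Hepes pH 8.0/NaCl/glycerol. EC50 = concentration halving PBP-bound Bocillin-FL.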

Assay [2] concerns the target T2, P. aeruginosa PBP3 (Pseudomonas aeruginosa, UniProt G3XD46).
T2 construct: made in house
The experiment in a line: Bocillin-FL fluorescence polarization competition binding assay, P. aeruginosa PBP3. The conditions noted are these: fluorescence polarization competition binding assay using Bocillin-FL. The essentials: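 Binding of boronic acid inhibitors to purified Pseudomonas aeruginosa (PA01) PBP3 was measured by fluorescence polarization competition with Bocillin-FL, a fluorescent penicillin V. Reactions of 80 μl contained 0.75 μM PBP3 and 0.1 μM Bocillin-FL in 50 mM Hepes (pH 8.0), 300 mM NaCl and 5% (v/v) glycerol, in black 384-well plates. FP (Excitation 490 nm, Emission 520 nm) was read for up to 60 minutes. EC50 is the concentration that halves PBP-bound Bocillin-FL.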
A general note: Fluorescence polarisation rises when a labelled molecule tumbles more slowly, as on binding a larger partner.

The nature of assay [3]: Bocillin-FL fluorescence polarization competition binding assay, A. baumannii PBP3. Conditions: fluorescence polarization competition binding assay using Bocillin-FL; column 3; read-out: 4. baumannii PBP1a Potency. From the text:
Example I: Experimental Method for Penicillin-Binding Protein Binding Assays with Bocillin-FL Via Fluorescence Polarization
To determine the ability of boronic acid-based test PBP inhibitors to bind Penicillin Binding Proteins (PBPs), Bocillin-FL (fluorescently-labeled penicillin V; ThermoFisher Scientific) was used in a fluorescence polarization (FP) competition binding assay to assess inhibitor binding to PBP2, PBP3 or PBP4 from Escherichia coli (K12), PBP3 from Pseudomonas aeruginosa (PA01), PBP1a, PBP2 and PBP3 from Acinetobacter baumannii (ATCC 19606), and PBP2 from Neiserria gonorrheae (FA19). PBPs were cloned and purified as described previously (E. coli PBPs, King, D. T, et al., ACS Infectious Diseases 2015, 1, 175-184; P. aeruginosa PBP3, Han et. al., PNAS 2010, 107 (51), 22002-22007; A. baumannii PBPs, Penwell et. al., Antimicrob. Agents Chemother. 2015, 59 (3), 1680-1689; N. gonorrhoeae PBP2, Singh et. al., J Biol. Chem. 2019, 294 (38), 14020-14032). To establish assay conditions for competition binding, enzyme titration/saturation binding experiments were initially performed. Bocillin-FL was prepared at 0.2 μM in a buffer comprised of 50 mM Hepes (pH 8.0), 300 mM NaCl and 5% (v/v) glycerol for reactions with E. coli, P. aeruginosa and N. gonorrhoeae PBPs, and 25 mM Tris (pH 8.0), 200 mM NaCl and 10% (v/v) glycerol and 0.005% (v/v) Tween 20 for reactions with A. baumannii PBPs. Saturation binding was performed by mixing 40 μl of PBP solutions ranging in concentrations from 0-24 μM with 40 μl of the 0.2 μM Bocillin-FL solution, in individual wells of a black 384-well microplate. FP was measured immediately upon mixing (Excitation, 490 nm; Emission, 520 nm; g-factor, 0.96), using a Cytation3 (BioTek) microplate reader and measured continuously for up to 120 minutes. […] The competition binding assay (80 μl final volume) was validated using beta-lactams and PBPs at final concentrations of: 1.5 μM, E. coli PBP3; 0.75 μM, P. aeruginosa PBP3; 1 μM A. baumannii PBP1a; 2.5 μM A. baumannii PBP2; 0.2 μM A. baumannii PBP3; and […] N. gonorrhoeae PBP2. Bocillin-FL was at 0.1 μM (0.05 μM with A. baumannii PBP1a) and beta-lactam concentrations ranged from 0-1000 μM. […] Bocillin-FL was added and the FP immediately measured for up to 60 minutes (90 minutes for E. coli PBP2). […] The beta-lactam potency was reported as the concentration of beta-lactam required to reduce the amount of PBP bound-Bocillin-FL by 50% (EC50). […] Binding assays for boronic acid PBP inhibitors were performed in an identical fashion for the respective PBPs

Assay [4] concerns A. baumannii ATCC 19606. The experiment in a line: Broth microdilution MIC in CAMHB. The conditions noted are these: Acinetobacter baumannii, ATCC19606; MHB; read-out: Minimum Inhibitory Concentration, A. baumannii ATCC 19606. It is filed as cell-based. An outline of the steps:
(§1)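 Per CLSI broth microdilution, colonies were grown 3-5 h at 37° C in cation-adjusted Mueller Hinton broth, then diluted to a starting inoculum of 2-8×10^5 CFU/mL against 2-fold serial compound dilutions. Plates were incubated 16-20 h at 37° C, and MIC was read visually as the lowest concentration with no growth.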

The subject of assay [5] is E. coli 901C. The experiment in a line: Broth microdilution MIC in CAMHB. Conditions: Escherichia coli; E. coli 901C (hyper-permeable); MHB; read-out: Minimum Inhibitory Concentration, E. coli 901C. It is filed as cell-based. The essentials:
as §1
Background: Broth dilution looks for growth in wells or tubes with falling amounts of substance.

The test system of assay [6] is E. coli AG100A. Nature of the assay: Broth microdilution MIC in CAMHB. It is filed as cell-based. Conditions: Escherichia coli, read-out: Minimum Inhibitory Concentration, E. coli AG100A. An outline of the steps: as §1
Assay [7] concerns E. coli AG100. The experiment in a line: Broth microdilution MIC in CAMHB. It is filed as cell-based. Conditions: Escherichia coli; E. coli AG100 (wild-type parent); MHB; read-out: Minimum Inhibitory Concentration, E. coli AG100. The essentials: as §1
Assay [8] deals with E. coli ATCC 25922. The experiment in a line: Broth microdilution MIC in CAMHB. It is filed as cell-based. Conditions: Escherichia coli, ATCC25922; E. coli ATCC 25922; MHB; read-out: Minimum Inhibitory Concentration, E. coli 25922. The essentials:
as §1

The test system of assay [9] is E. coli D22. The experiment in a line: Broth microdilution MIC in CAMHB. Conditions: Escherichia coli; E. coli D22 (hyper-permeable); MHB; read-out: Minimum Inhibitory Concentration, E. coli D22. It is filed as cell-based. An outline of the steps:
as §1

The subject of assay [10] is K. pneumoniae 848844 producing SHV-11 and KPC-2. The experiment in a line: Broth microdilution MIC in CAMHB. It is filed as cell-based. Conditions: Klebsiella pneumoniae, read-out: Minimum Inhibitory Concentration, K. pneumoniae 848844. The essentials:
as §1

In assay [11] the test system is K. pneumoniae SI-117 producing VIM-1. Nature of the assay: Broth microdilution MIC in CAMHB. It is filed as cell-based. The conditions noted are these: Klebsiella pneumoniae, read-out: Minimum Inhibitory Concentration, K. pneumoniae SI-117. The essentials: as §1
The subject of assay [12] is K. pneumoniae UMM producing SHV-5 and KPC-2. The experiment in a line: Broth microdilution MIC in CAMHB. It is filed as cell-based. Conditions: Klebsiella pneumoniae, read-out: Minimum Inhibitory Concentration, K. pneumoniae UMM. An outline of the steps: as §1
In assay [13] the test system is P. aeruginosa (ΔmexAB-oprM). Nature of the assay: Broth microdilution MIC in CAMHB. Conditions: Pseudomonas aeruginosa, read-out: Minimum Inhibitory Concentration, P. aeruginosa ΔmexAB-OprM. It is filed as cell-based. An outline of the steps:
as §1

For assay [14], the system named is P. aeruginosa ATCC 27853. Nature of the assay: Broth microdilution MIC in CAMHB. It is filed as cell-based. Conditions: Pseudomonas aeruginosa, ATCC27853; MHB; read-out: Minimum Inhibitory Concentration, P. aeruginosa ATCC 27853. The essentials:
as §1

The subject of assay [15] is P. aeruginosa ATCC 35151. Nature of the assay: Broth microdilution MIC in CAMHB. It is filed as cell-based. The conditions noted are these: Pseudomonas aeruginosa, ATCC35151; MHB; hyper-permeable strain; read-out: Minimum Inhibitory Concentration, P. aeruginosa ATCC 35151. An outline of the steps:
as §1

T2 sequence (G3XD46 whole entry): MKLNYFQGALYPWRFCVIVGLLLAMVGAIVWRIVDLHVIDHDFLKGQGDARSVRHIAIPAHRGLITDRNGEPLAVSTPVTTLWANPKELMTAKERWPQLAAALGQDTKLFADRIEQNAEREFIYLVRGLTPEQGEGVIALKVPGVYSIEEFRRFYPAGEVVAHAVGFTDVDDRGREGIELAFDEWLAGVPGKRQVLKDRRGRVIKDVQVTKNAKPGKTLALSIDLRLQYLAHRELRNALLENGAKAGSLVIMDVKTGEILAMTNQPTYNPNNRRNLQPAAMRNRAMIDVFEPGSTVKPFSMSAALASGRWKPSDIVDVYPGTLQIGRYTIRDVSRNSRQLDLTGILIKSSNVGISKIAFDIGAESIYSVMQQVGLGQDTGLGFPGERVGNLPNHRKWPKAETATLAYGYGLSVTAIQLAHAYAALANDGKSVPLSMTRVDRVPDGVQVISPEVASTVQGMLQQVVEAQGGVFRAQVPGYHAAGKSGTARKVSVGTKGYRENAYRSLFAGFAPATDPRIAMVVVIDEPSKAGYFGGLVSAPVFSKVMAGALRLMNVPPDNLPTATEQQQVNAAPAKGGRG
T1 sequence (P0AD68 1-577): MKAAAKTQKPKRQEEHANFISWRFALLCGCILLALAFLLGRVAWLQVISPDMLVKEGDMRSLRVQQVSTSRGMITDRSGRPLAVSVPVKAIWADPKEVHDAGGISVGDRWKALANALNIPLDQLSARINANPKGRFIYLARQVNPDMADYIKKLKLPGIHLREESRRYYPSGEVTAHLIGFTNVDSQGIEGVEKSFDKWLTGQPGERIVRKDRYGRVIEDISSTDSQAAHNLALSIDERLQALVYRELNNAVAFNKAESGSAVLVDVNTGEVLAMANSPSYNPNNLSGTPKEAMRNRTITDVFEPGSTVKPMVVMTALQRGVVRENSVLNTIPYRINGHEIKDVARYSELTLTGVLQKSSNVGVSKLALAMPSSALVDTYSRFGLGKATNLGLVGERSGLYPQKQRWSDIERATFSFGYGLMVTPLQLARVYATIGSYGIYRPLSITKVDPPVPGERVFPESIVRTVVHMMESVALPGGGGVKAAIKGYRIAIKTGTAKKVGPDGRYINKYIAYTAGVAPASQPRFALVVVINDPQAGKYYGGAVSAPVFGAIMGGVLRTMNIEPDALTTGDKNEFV

For the compound `C[C@H]1CN(CCN)C(=O)C(=O)N1C(=O)N[C@@H](C(=O)N[C@H]1Cc2cccc(C(=O)O)c2OB1O)c1ncc(O)cc1F` [Example 14, (R)-3-((R)-2-((S)-4-(2-aminoethyl)-6-methyl-2,3-dioxopiperazine-1-carboxamido)-2-(3-fluoro-5-hydroxypyridin-2-yl)acetamido)-2-hydroxy-3,4-dihydro-2H-benzo[e][1,2]oxaborinine-8-carboxylic acid], the figures for the EC50 in [1] and in assay [3] were under 30 µM and under 10 µM, respectively. The “P. aeruginosa PBP3 Potency” value in assay [2] was “D (D represents a potency <10 μM)”. Besides, the MIC is over 128 µg/mL in [4]; 0.5 to 1 µg/mL (≈ 0.874 to 1.75 µM) in assay [5]; 0.5 to 1 µg/mL (≈ 0.874 to 1.75 µM) in assay [6]; 8 to 16 µg/mL (≈ 14 to 28 µM) in assay [7]; 8 to 16 µg/mL (≈ 14 to 28 µM) in assay [8]; 2 to 4 µg/mL (≈ 3.49 to 6.99 µM) in assay [9]. Further, the MIC is 32 to 64 µg/mL (≈ 55.9 to 112 µM) in assay [10]; 32 to 64 µg/mL (≈ 55.9 to 112 µM) in assay [11]; 8 to 16 µg/mL (≈ 14 to 28 µM) in assay [12]; 8 to 16 µg/mL (≈ 14 to 28 µM) in assay [13]; over 128 µg/mL in assay [14]; 0.5 to 1 µg/mL (≈ 0.874 to 1.75 µM) in assay [15].

As to `NCCCN1CCN(C(=O)N[C@@H](C(=O)N[C@H]2Cc3ccc(F)c(C(=O)O)c3OB2O)c2ncc(O)cc2F)C(=O)C1=O` [Example 16, (R)-3-((R)-2-(4-(3-aminopropyl)-2,3-dioxopiperazine-1-carboxamido)-2-(3-fluoro-5-hydroxypyridin-2-yl)acetamido)-7-fluoro-2-hydroxy-3,4-dihydro-2H-benzo[e][1,2]oxaborinine-8-carboxylic acid], the values for the EC50 in [1] and in assay [3] were under 30 µM and 30 to 100 µM, respectively. For the same compound, the “P. aeruginosa PBP3 Potency” value in assay [2] is given as “D (D represents a potency <10 μM)”. Also, the MIC in assay [4] is over 128 µg/mL; in assay [5], 2 to 4 µg/mL (≈ 3.39 to 6.78 µM); in [6] it was 8 to 16 µg/mL (≈ 13.6 to 27.1 µM); in assay [7], 8 to 16 µg/mL (≈ 13.6 to 27.1 µM); in [8], 8 to 16 µg/mL (≈ 13.6 to 27.1 µM); in assay [9] it was 2 to 4 µg/mL (≈ 3.39 to 6.78 µM). The MIC in assay [10] was 32 to 64 µg/mL (≈ 54.2 to 108 µM); in assay [11] it was 32 to 64 µg/mL (≈ 54.2 to 108 µM); in assay [12], 32 to 64 µg/mL (≈ 54.2 to 108 µM); in assay [13], 8 to 16 µg/mL (≈ 13.6 to 27.1 µM); in assay [14] it was 32 to 64 µg/mL (≈ 54.2 to 108 µM); in assay [15], under 0.25 µg/mL.
